Assay results as given in US20060069132A1, “Azolecarboxamide herbicides” (priority 2004, published 2006).

Columns and labels:
pigweed = assay: Test C pre-/postemergence herbicide test; type: in vivo, Amaranthus retroflexus
Method in brief: (§1)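 Visual ratings on a 0–100 scale (100 = complete control) made versus untreated controls after 12 to 14 greenhouse days. Test chemicals, formulated in surfactant-containing non-phytotoxic solvent, applied preemergence to planted seeds or postemergence to 1- to 4-leaf plants (2 to 18 cm).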

common ragweed = assay: Test C pre-/postemergence herbicide test; type: in vivo, Ambrosia elatior; design: key to Plant response rating, Ragweed: 0 = no effect, 100 = complete control
Method in brief: as §1

chickweed = assay: Test C postemergence herbicide test; type: in vivo, Stellaria media; conditions: for Chickweed plant response rating: 500 g ai/ha
Method in brief: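 Weeds and wheat were sprayed after emergence, at a height of 2 to 18 cm (1–4 leaves), and paddy barnyardgrass was flooded and treated at two leaves. Assessment took place 12–14 days later in the greenhouse on a 0-to-100 visual control scale. A dash means no result was obtained.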

large crabgrass = assay: Test C pre-/postemergence herbicide test; type: in vivo, Digitaria sanguinalis
Method in brief: as §1

Surinam grass = assay: Test C pre-/postemergence herbicide test; type: in vivo, Urochloa decumbens
Method in brief: as §1

eastern black nightshade = assay: Test C pre-/postemergence herbicide test; type: in vivo, Solanum ptycanthum; conditions: for Plant response rating (0 = no effect, 100 = complete control), Nightshade / Plant response rating, Nightshade: preemergence; for Nightshade plant response rating: Preemergence, scale 0 to 100, 0 no effect, 100 complete control
Method in brief: as §1

rice [1] = assay: Test B pre-/postemergence herbicide test; type: in vivo, Oryza sativa
Method in brief: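 Formulation: non-phytotoxic solvent mix with surfactant. Timing: preemergence on seed and postemergence on 2–18 cm plants, applied concurrently. Readout after 13–15 d greenhouse: visual 0–100 control rating against controls.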

barnyardgrass = assay: Test A pre-/postemergence herbicide test; type: in vivo, Echinochloa crus-galli
Method in brief: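 Visual injury scores on a 0–100 scale (100 = complete control) taken about ten days post-treatment in greenhouse against untreated controls; dash means no result. Treatments: preemergence soil spray and postemergence spray to runoff on one- to two-leaf plants 2 to 10 cm tall, surfactant-containing formulation.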

ducksalad = assay: Test C flooded paddy test; type: in vivo, Heteranthera limosa
rice [2] = assay: Test C flooded paddy test; type: in vivo, Oryza sativa
Method in brief: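 Postemergence sprays applied to plants 2 to 18 cm tall (1- to 4-leaf stage); paddy species grown to 2-leaf stage under flooding. After 12 to 14 days in greenhouse, visual rating versus untreated controls on 0–100 scale (0 no effect, 100 complete control).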

[3] = 125 g ai/ha, scale 0 (no effect) to 100 (complete control), visual, 12 to 14 days, preemergence
[4] = 250 g ai/ha, scale 0 to 100 (0 no effect, 100 complete control), visual, 12 to 14 days, preemergence
[5] = Postemergence, 500 g ai/ha, scale 0 to 100
[6] = Postemergence, 250 g ai/ha, scale 0 to 100, 0 no effect, 100 complete control
[7] = Preemergence, 500 g ai/ha, scale 0 to 100, 0 no effect, 100 complete control
[8] = postemergence, 62 g ai/ha, scale 0 to 100
[9] = Postemergence, 125 g ai/ha, scale 0 to 100, 0 no effect, 100 complete control
[10] = 125 g ai/ha, scale 0 (no effect) to 100 (complete control), visual, 12 to 14 days
[11] = postemergence, 125 g ai/ha, scale 0 to 100
[12] = 62 g ai/ha, preemergence, scale 0 to 100
[13] = 250 g ai/ha, scale 0-100, preemergence
[14] = 500 g ai/ha, scale 0 to 100 (0 no effect, 100 complete control), visual, 12 to 14 days, preemergence
[15] = 125 g ai/ha, scale 0 to 100 (0 no effect, 100 complete control)
[16] = 250 g ai/ha, scale of 0 to 100, 0 is no effect, 100 is complete control
[17] = 500 g ai/ha, visual rating after 12 to 14 days, scale 0 to 100 (0 no effect, 100 complete control)

C#CCn1nc(C(C)(C)C)cc1C(=O)Nc1cccc(C(=O)NCC)c1 [Compound 50]
20: Plant response rating, Crabgrass, Large (large crabgrass; [4])
40: Plant response rating, Ragweed (common ragweed; [3])
5: Plant response rating, Nightshade (eastern black nightshade; [10])
80: Plant response rating, Ragweed (common ragweed; [4]) | Plant response rating, Ragweed (common ragweed; [8]) | Crabgrass, Large plant response rating (large crabgrass; [7]) | Plant response rating, Surinam Grass (Surinam grass; [4]) | Plant response rating, Nightshade (eastern black nightshade; 250 g ai/ha, scale 0 to 100 (0 no effect, 100 complete control), visual, 12 to 14 days)
95: Plant response rating, Pigweed (pigweed; [4]) | Pigweed plant response rating (pigweed; [7]) | Nightshade plant response rating (eastern black nightshade; 500 g ai/ha)
85: Ragweed plant response rating (common ragweed; [5]) | Plant response rating, Ragweed (common ragweed; [6]) | Surinam Grass plant response rating (Surinam grass; [7])
50: Plant response rating, Pigweed (pigweed; [8]) | Plant response rating, Surinam Grass (Surinam grass; [6]) | Rice plant response rating (rice [1]; Preemergence, 500 g ai/ha, scale 0 to 100)
100: Pigweed plant response rating (pigweed; [5]) | Plant response rating, Pigweed (pigweed; [6]) | Ragweed plant response rating (common ragweed; [7])
0: Chickweed plant response rating (chickweed; Postemergence, scale 0 to 100) | Plant response rating, Chickweed (chickweed; [9]) | Plant response rating, Chickweed (chickweed; [6]) | Plant response rating, Chickweed (chickweed; [8]) | Plant response rating (0 = no effect, 100 = complete control), Crabgrass, Large (large crabgrass; 62 g ai/ha, preemergence) | Plant response rating, Crabgrass, Large (large crabgrass; [3]) | Crabgrass, Large plant response rating (large crabgrass; [5]) | Plant response rating, Crabgrass, Large (large crabgrass; [9]) | Plant response rating, Crabgrass, Large (large crabgrass; [6]) | Plant response rating, Crabgrass, Large (large crabgrass; [8]) | Plant response rating (0 = no effect, 100 = complete control), Surinam Grass (Surinam grass; 62 g ai/ha, preemergence) | Plant response rating (0 = no effect, 100 = complete control), Nightshade (eastern black nightshade; 62 g ai/ha)
10: Plant response rating (0 = no effect, 100 = complete control), Ragweed (common ragweed; 62 g ai/ha, preemergence) | Plant response rating, Surinam Grass (Surinam grass; [3]) | Plant response rating, Surinam Grass (Surinam grass; [8]) | Plant response rating, Rice (rice [1]; preemergence, 125 g ai/ha, 0 to 100 scale, 0 is no effect, 100 is complete control)
90: Plant response rating (0 = no effect, 100 = complete control), Pigweed (pigweed; 62 g ai/ha, preemergence) | Plant response rating, Pigweed (pigweed; [3])

CCn1nc(C(C)(C)C)cc1C(=O)Nc1cccc(SC(F)(F)F)c1 [Compound 130]
85: Ragweed plant response rating (common ragweed; [5]) | Plant response rating, Ragweed (common ragweed; [6])
20: Barnyardgrass plant response rating (barnyardgrass; Postemergence, 500 g ai/ha, 0 to 100 scale, 0 no effect, 100 complete control) | Plant response rating, Barnyardgrass (barnyardgrass; Postemergence, 2000 g ai/ha, 0 to 100 scale, 0 no effect, 100 complete control) | Plant response rating, Crabgrass, Large (large crabgrass; [6])
0: Plant response rating (0 = no effect, 100 = complete control), Ragweed (common ragweed; 62 g ai/ha, preemergence) | Plant response rating, Rice (rice [1]; 500 g ai/ha, visual rating 0-100, 0 no effect, 100 complete control, preemergence)
40: Barnyardgrass plant response rating (barnyardgrass; Preemergence, 500 g ai/ha, visual rating, 0 to 100 scale (0 no effect, 100 complete control)) | Plant response rating, Ragweed (common ragweed; [11])
10: Plant response rating, Ragweed (common ragweed; [3]) | Plant response rating, Surinam Grass (Surinam grass; [11])
100: Pigweed plant response rating (pigweed; [5]) | Plant response rating, Pigweed (pigweed; [6]) | Pigweed plant response rating (pigweed; [7]) | Plant response rating, Pigweed (pigweed; [11]) | Chickweed plant response rating (chickweed; Postemergence, scale 0 to 100) | Plant response rating, Chickweed (chickweed; [6]) | Plant response rating, Chickweed (chickweed; [11])
5: Plant response rating (0 = no effect, 100 = complete control), Surinam Grass (Surinam grass; 62 g ai/ha, preemergence) | Plant response rating, Surinam Grass (Surinam grass; [3])
90: Plant response rating, Pigweed (pigweed; [3]) | Plant response rating, Crabgrass, Large (large crabgrass; [3]) | Crabgrass, Large plant response rating (large crabgrass; [5])
60: Surinam Grass plant response rating (Surinam grass; [5]) | Surinam Grass plant response rating (Surinam grass; [7]) | Nightshade plant response rating (eastern black nightshade; 500 g ai/ha)
30: Barnyardgrass plant response rating (barnyardgrass; Preemergence, 2000 g ai/ha, visual rating, 0 to 100 scale (0 no effect, 100 complete control)) | Plant response rating, Surinam Grass (Surinam grass; [6]) | Plant response rating (0 = no effect, 100 = complete control), Nightshade (eastern black nightshade; 62 g ai/ha)
95: Plant response rating, Crabgrass, Large (large crabgrass; [4]) | Crabgrass, Large plant response rating (large crabgrass; [7])
80: Plant response rating (0 = no effect, 100 = complete control), Pigweed (pigweed; 62 g ai/ha, preemergence) | Ragweed plant response rating (common ragweed; [7])

CCn1nc(C(C)(C)C)cc1C(=O)Nc1cccc(OC(F)F)c1 [Compound 332]
100: Plant response rating, Pigweed (pigweed; [12]) | Plant response rating, Pigweed (pigweed; [3]) | Plant response rating, Pigweed (pigweed; [13]) | Plant response rating, Pigweed (pigweed; [14]) | Chickweed plant response rating (chickweed; Postemergence, scale 0 to 100) | Plant response rating, Chickweed (chickweed; [6]) | Plant response rating, Chickweed (chickweed; [11]) | Plant response rating, Crabgrass, Large (large crabgrass; [3]) | Plant response rating, Crabgrass, Large (large crabgrass; [13]) | Plant response rating, Crabgrass, Large (large crabgrass; [14]) | Plant response rating, Nightshade (eastern black nightshade; 500 g ai/ha, scale 0 to 100 (0 no effect, 100 complete control), visual, 12 to 14 days)
45: Rice plant response rating (rice [2]; [16])
40: Plant response rating, Ragweed (common ragweed; [6]) | Plant response rating, Rice (rice [1]; 500 g ai/ha, visual rating, 0 = no effect, 100 = complete control, preemergence)
10: Plant response rating, Surinam Grass (Surinam grass; [13]) | Plant response rating, Surinam Grass (Surinam grass; [6])
5: Plant response rating, Ragweed (common ragweed; [13]) | Plant response rating, Ragweed (common ragweed; [8]) | Plant response rating, Surinam Grass (Surinam grass; [12]) | Plant response rating, Surinam Grass (Surinam grass; [11]) | Plant response rating, Surinam Grass (Surinam grass; [8])
50: Plant response rating, Crabgrass, Large (large crabgrass; [6])
15: Plant response rating, Surinam Grass (Surinam grass; [14])
70: Plant response rating, Ragweed (common ragweed; [14]) | Crabgrass, Large plant response rating (large crabgrass; [5]) | Plant response rating, Rice (rice [2]; [17])
0: Plant response rating, Ragweed (common ragweed; [12]) | Rice plant response rating (rice [2]; 62 g ai/ha, scale 0 to 100) | Rice plant response rating (rice [2]; [15])
90: Plant response rating, Pigweed (pigweed; [11]) | Ducksalad plant response rating (ducksalad; [15]) | Plant response rating, Nightshade (eastern black nightshade; [10])
60: Ragweed plant response rating (common ragweed; [5]) | Plant response rating, Chickweed (chickweed; [8])
75: Plant response rating, Crabgrass, Large (large crabgrass; [12])
95: Pigweed plant response rating (pigweed; [5]) | Plant response rating, Pigweed (pigweed; [6]) | Ducksalad plant response rating (ducksalad; [16]) | Plant response rating, Ducksalad (ducksalad; [17]) | Plant response rating, Nightshade (eastern black nightshade; 250 g ai/ha, scale 0-100)
85: Plant response rating, Pigweed (pigweed; [8])
20: Ducksalad plant response rating (ducksalad; 62 g ai/ha, scale 0 to 100) | Plant response rating, Nightshade (eastern black nightshade; 62 g ai/ha, scale 0 to 100) | Plant response rating (0 to 100 scale), Rice (rice [1]; 125 g ai/ha, 0 is no effect, 100 is complete control, preemergence)
30: Plant response rating, Ragweed (common ragweed; [11]) | Plant response rating, Crabgrass, Large (large crabgrass; [8]) | Surinam Grass plant response rating (Surinam grass; [5])
